According to ChEMBL document CHEMBL4359931, “Synthesis, biological evaluation and molecular docking studies of new amides of 4-bromothiocolchicine as anticancer agents” (Bioorg Med Chem, 2019):
Active and inactive are the calls of the source. The calls are words filed in the database; no cut-off is given here.

Legend:
[1] = Antiproliferative activity against human ALL5 cells assessed as reduction in cell viability incubated for 120 hrs by MTT assay; format: functional, cell-based; details: ALL5, 120 h
[2] = Selectivity index, ratio of IC50 of mouse BALB/3T3 cells to IC50 of human LoVo/DX cells; format: toxicity; details: BALB/3T3 cells versus LoVo/DX cells, read-out: Ratio IC50
[3] = test system: MCF7; assay: Antiproliferative activity against human MCF7 cells assessed as reduction in cell viability incubated for 120 hrs by MTT assay; format: functional, cell-based; details: MCF7, 120 h
[4] = test system: BALB/3T3; assay: Antiproliferative activity against mouse BALB/3T3 cells assessed as reduction in cell viability incubated for 120 hrs by MTT assay; format: cell-based; details: BALB/3T3, 120 h
[5] = Antiproliferative activity against human LoVo/DX cells assessed as reduction in cell viability incubated for 120 hrs by MTT assay; format: functional, cell-based
[6] = test system: LoVo; assay: Antiproliferative activity against human LoVo cells assessed as reduction in cell viability incubated for 120 hrs by MTT assay; format: functional, cell-based
[7] = Selectivity index, ratio of IC50 of mouse BALB/3T3 cells to IC50 of human LoVo cells; format: toxicity; details: BALB/3T3 cells versus LoVo cells, read-out: Ratio IC50
[8] = test system: A549; assay: Antiproliferative activity against human A549 cells assessed as reduction in cell viability incubated for 120 hrs by MTT assay; format: functional, cell-based; details: A549, 120 h
[9] = Selectivity index, ratio of IC50 of mouse BALB/3T3 cells to IC50 of human MCF7 cells; format: toxicity; details: BALB/3T3 cells versus MCF7 cells, read-out: Ratio IC50
[10] = Selectivity index, ratio of IC50 of mouse BALB/3T3 cells to IC50 of human A549 cells
[11] = Resistance index, ratio of IC50 of human LoVo/DX cells to IC50 of human LoVo cells; format: functional
[12] = Selectivity index, ratio of IC50 of mouse BALB/3T3 cells to IC50 of human ALL5 cells
[13] = Cell cycle arrest in human ALL5 cells assessed as accumulation in S phase at 5 times of antiproliferative IC50 incubated for 24 hrs by propidium iodide based flow cytometry (reference value: […]); format: functional
[14] = Cell cycle arrest in human ALL5 cells assessed as accumulation in subG1 phase at 5 times of antiproliferative IC50 incubated for 72 hrs by propidium iodide based flow cytometry (reference value: 15.5 %); format: functional
[15] = organism: Homo sapiens; assay: Induction of cell cycle arrest in human ALL5 cells assessed as increase in 4 N DNA at 5 times of antiproliferative IC50 incubated for 24 hrs by propidium iodide based flow cytometry; format: functional
[16] = test system: MCF7; assay: Cell cycle arrest in human MCF7 cells assessed as accumulation in G1 phase at 5 times of antiproliferative IC50 incubated for 24 hrs by propidium iodide based flow cytometry (reference value: 49.9 %); format: functional
[17] = test system: MCF7; assay: Cell cycle arrest in human MCF7 cells assessed as accumulation in G2 phase at 5 times of antiproliferative IC50 incubated for 72 hrs by propidium iodide based flow cytometry (reference value: 18.6 %); format: functional
[18] = Cell cycle arrest in human ALL5 cells assessed as accumulation in subG1 phase at 5 times of antiproliferative IC50 incubated for 24 hrs by propidium iodide based flow cytometry (reference value: 10.5 %); format: functional
[19] = test system: MCF7; assay: Cell cycle arrest in human MCF7 cells assessed as accumulation in G2 phase at 5 times of antiproliferative IC50 incubated for 48 hrs by propidium iodide based flow cytometry (reference value: 16 %); format: functional
[20] = test system: MCF7; assay: Cell cycle arrest in human MCF7 cells assessed as accumulation in subG1 phase at 5 times of antiproliferative IC50 incubated for 48 hrs by propidium iodide based flow cytometry (reference value: 9.19 %); format: functional
[21] = Cell cycle arrest in human ALL5 cells assessed as accumulation in G2 phase at 5 times of antiproliferative IC50 incubated for 48 hrs by propidium iodide based flow cytometry (reference value: 11.2 %); format: functional
[22] = test system: MCF7; assay: Cell cycle arrest in human MCF7 cells assessed as accumulation in G2 phase at 5 times of antiproliferative IC50 incubated for 24 hrs by propidium iodide based flow cytometry (reference value: 22.4 %); format: functional
[23] = test system: MCF7; assay: Cell cycle arrest in human MCF7 cells assessed as accumulation in subG1 phase at 5 times of antiproliferative IC50 incubated for 24 hrs by propidium iodide based flow cytometry (reference value: 7.79 %); format: functional
[24] = Cell cycle arrest in human ALL5 cells assessed as accumulation in G1 phase at 5 times of antiproliferative IC50 incubated for 48 hrs by propidium iodide based flow cytometry (reference value: 67.4 %); format: functional
[25] = test system: MCF7; assay: Cell cycle arrest in human MCF7 cells assessed as accumulation in G1 phase at 5 times of antiproliferative IC50 incubated for 72 hrs by propidium iodide based flow cytometry (reference value: 58 %); format: functional
[26] = test system: MCF7; assay: Cell cycle arrest in human MCF7 cells assessed as accumulation in S phase at 5 times of antiproliferative IC50 incubated for 72 hrs by propidium iodide based flow cytometry (reference value: 19.8 %); format: functional
[27] = test system: MCF7; assay: Cell cycle arrest in human MCF7 cells assessed as accumulation in S phase at 5 times of antiproliferative IC50 incubated for 48 hrs by propidium iodide based flow cytometry (reference value: 34 %); format: functional
[28] = organism: Homo sapiens; assay: Induction of cell death in human ALL5 cells assessed as decrease in 4 N DNA at 5 times of antiproliferative IC50 incubated for 72 hrs by propidium iodide based flow cytometry; format: functional
[29] = Cell cycle arrest in human ALL5 cells assessed as accumulation in G2 phase at 5 times of antiproliferative IC50 incubated for 72 hrs by propidium iodide based flow cytometry (reference value: 11.3 %); format: functional
[30] = Cell cycle arrest in human ALL5 cells assessed as accumulation in G1 phase at 5 times of antiproliferative IC50 incubated for 72 hrs by propidium iodide based flow cytometry (reference value: 59.7 %); format: functional
[31] = test system: MCF7; assay: Cell cycle arrest in human MCF7 cells assessed as accumulation in subG1 phase at 5 times of antiproliferative IC50 incubated for 72 hrs by propidium iodide based flow cytometry (reference value: 3.59 %); format: functional
[32] = test system: MCF7; assay: Cell cycle arrest in human MCF7 cells assessed as accumulation in G1 phase at 5 times of antiproliferative IC50 incubated for 48 hrs by propidium iodide based flow cytometry (reference value: 40.8 %); format: functional
[33] = Cell cycle arrest in human ALL5 cells assessed as accumulation in G1 phase at 5 times of antiproliferative IC50 incubated for 24 hrs by propidium iodide based flow cytometry (reference value: 68.1 %); format: functional
[34] = Cell cycle arrest in human ALL5 cells assessed as accumulation in S phase at 5 times of antiproliferative IC50 incubated for 72 hrs by propidium iodide based flow cytometry (reference value: 13.5 %); format: functional
[35] = Cell cycle arrest in human ALL5 cells assessed as accumulation in G2 phase at 5 times of antiproliferative IC50 incubated for 24 hrs by propidium iodide based flow cytometry (reference value: 10.6 %); format: functional
[36] = Cell cycle arrest in human ALL5 cells assessed as accumulation in S phase at 5 times of antiproliferative IC50 incubated for 48 hrs by propidium iodide based flow cytometry (reference value: 10.3 %); format: functional
[37] = test system: MCF7; assay: Cell cycle arrest in human MCF7 cells assessed as accumulation in S phase at 5 times of antiproliferative IC50 incubated for 24 hrs by propidium iodide based flow cytometry (reference value: 19.9 %); format: functional
[38] = Cell cycle arrest in human ALL5 cells assessed as accumulation in subG1 phase at 5 times of antiproliferative IC50 incubated for 48 hrs by propidium iodide based flow cytometry (reference value: 11 %); format: functional
[39] = organism: Homo sapiens; assay: Induction of cell cycle arrest in human ALL5 cells assessed as increase in 4 N DNA at 5 times of antiproliferative IC50 incubated for 48 hrs by propidium iodide based flow cytometry; format: functional

| SMILES | IC50 [1] [nM] | selectivity ratio [2] | IC50 [3] [nM] | IC50 [4] [nM] | IC50 [5] [nM] | IC50 [6] [nM] | selectivity ratio [7] | IC50 [8] [nM] | selectivity ratio [9] | Ratio IC50 [10] | Ratio IC50 [11] | Ratio IC50 [12] | Activity [13] [%] | Activity [14] [%] | Activity [15] | Activity [16] [%] | Activity [17] [%] | Activity [18] [%] | Activity [19] [%] | Activity [28] | other results |
| --- | --- | --- | --- | --- | --- | --- | --- | --- | --- | --- | --- | --- | --- | --- | --- | --- | --- | --- | --- | --- | --- |
| CCN(CC)C(=O)N[C@H]1CCc2c(Br)c(OC)c(OC)c(OC)c2-c2ccc(SC)c(=O)cc21 | 55.3 | 0.1 | 97.3 | 80.4 | 621 | 53.8 | 1.5 | 99.1 | 0.8 | 0.8 | 11.6 | 1.5 | – | – | – | – | – | – | – | – | – |
| COc1c(Br)c2c(c(OC)c1OC)-c1ccc(SC)c(=O)cc1[C@@H](NC(=O)c1ccccc1)CC2 | 5.8 | 0.4 | 11.4 | 17.4 | 47.9 | 6.6 | 2.6 | 9.6 | 1.5 | 1.8 | 7.3 | 3 | 14.7 | 50.6 | Active | 11 | 61.6 | 16.5 | 68.3 | Active | Activity [20]: 10%; Activity [21]: 25.4%; Activity [22]: 75%; Activity [23]: 6.17%; Activity [24]: 33.8%; Activity [25]: 13%; Activity [26]: 9.81%; Activity [27]: 7.39%; Activity [29]: 7.51%; Activity [30]: 22.1%; Activity [31]: 15.6%; Activity [32]: 14.3%; Activity [33]: 52%; Activity [34]: 19.7%; Activity [35]: 16.9%; Activity [36]: 16%; Activity [37]: 7.85%; Activity [38]: 24.7% |
| COc1c(Br)c2c(c(OC)c1OC)-c1ccc(SC)c(=O)cc1[C@@H](NC(=O)CCCCl)CC2 | 14 | 0.2 | 48.9 | 64.1 | 266 | 12 | 5.3 | 53.4 | 1.3 | 1.2 | 22.2 | 4.6 | – | – | Active | – | – | – | – | Active | Activity [39]: Active |
| COc1c(Br)c2c(c(OC)c1OC)-c1ccc(SC)c(=O)cc1[C@@H](NC(C)=O)CC2 | 5.4 | 0.8 | 14.8 | 103 | 135 | 13.6 | 7.6 | 10.1 | 7 | 10.2 | 9.6 | 19.1 | 14.8 | 37.2 | Active | 13 | 64.5 | 14.3 | 66 | Active | Activity [20]: 12%; Activity [21]: 16.6%; Activity [22]: 72.4%; Activity [23]: 7.93%; Activity [24]: 33.4%; Activity [25]: 15.5%; Activity [26]: 6.88%; Activity [27]: 7.31%; Activity [29]: 9.83%; Activity [30]: 28.8%; Activity [31]: 13.1%; Activity [32]: 14.6%; Activity [33]: 53.2%; Activity [34]: 24.2%; Activity [35]: 17.7%; Activity [36]: 19.4%; Activity [37]: 6.62%; Activity [38]: 30.5% |
| CCCCCCCCCC(=O)N[C@H]1CCc2c(Br)c(OC)c(OC)c(OC)c2-c2ccc(SC)c(=O)cc21 | 196 | 0.1 | 957 | 98.4 | 867 | 482 | 0.2 | 881 | 0.1 | 0.1 | 1.8 | 0.5 | – | – | – | – | – | – | – | – | – |
